Test results taken from US10221186B2, “Spirocyclic heterocyclic compounds useful as HIV integrase inhibitors” (priority 2014, dated 2019).
Like-named read-outs stand apart in the source and are kept apart here.

Tested on: HIV-1 (NL4-3 strain)
Experiment: Assay for inhibition of HIV replication (VIKING) in infected MT4-GFP cells
Assay type: cell-based
Details: infected cells at 48 h / 24 h
Protocol: MT4-GFP cells (250,000 cells/ml) were bulk-infected with HIV-1 (NL4-3 strain) at low multiplicity of infection (MOI) in RPMI+10% FBS for 24 hours. […] Test compounds were serial-diluted in DMSO on ECHO. The infected MT4-GFP cells were added to a 384-well poly-D-lysine coated black plate with clear bottom in which the diluted test compounds were placed. The cells were seeded at 8,000 cells per well and the final DMSO concentration was 0.4%. The infected cells (Green GFP cells) were quantified at both 24 and 48 hours post incubation using Acumen eX3. Viral reproductive ratio (R0) was determined using the number of infected cells at 48 hours divided by the number of infected cells at 24 hours. Percent viral growth inhibition was calculated by [1−(R−Rtripledrug)/(RDMSO−Rtripledrug)]*100.

[1] = MT4-GFP cells infected with HIV-1 NL4-3, 0% NHS (normal human serum), read-out: VIKING IP50 (nM) with 0% NHS
[2] = MT4-GFP cells infected with HIV-1 NL4-3, 100% NHS (normal human serum), read-out: VIKING IP50 (nM) with 100% NHS
[3] = Human immunodeficiency virus 1, NL43, MT4-GFP cells infected with HIV-1 NL4-3, 0% NHS (normal human serum), read-out: VIKING IP50 (nM) with 0% NHS
[4] = Human immunodeficiency virus 1, NL43, MT4-GFP cells infected with HIV-1 NL4-3, 100% NHS (normal human serum), read-out: VIKING IP50 (nM) with 100% NHS

Structure (SMILES) | IC50 [1] | IC50 [2] | IC50 [3] | IC50 [4]
CN1CC2(CCCOC2)n2cc(C(=O)NCc3ccc(F)cc3F)c(=O)c(O)c2C1=O (stereo not shown) [Compound 11] | 3 nM | 442 nM |  | 
COCCCN1CC2(CCOC2)n2cc(C(=O)NCc3ccc(F)cc3F)c(=O)c(O)c2C1=O (single isomer, unassigned) [Compound 13] | 2 nM | 36 nM |  | 
CN(C)N1CC2(CCOCC2)n2cc(C(=O)NCc3ccc(F)cc3F)c(=O)c(O)c2C1=O [Compound 2] |  |  | 19 nM | 1510 nM
COCCN1CC2(CCOC2)n2cc(C(=O)NCc3cccc(Cl)c3F)c(=O)c(O)c2C1=O (stereo not shown) [Compound 29] |  | 1140 nM | 1 nM | 
CCOCCN1CC2(CCOC2)n2cc(C(=O)NCc3ccc(F)cc3F)c(=O)c(O)c2C1=O (stereo not shown) [Compound 23] | 1 nM | 27 nM |  | 
CCN1CC2(CCOC2)n2cc(C(=O)NCc3ccc(F)cc3F)c(=O)c(O)c2C1=O (stereo not shown) [Compound 17] | 2 nM | > 8400 nM |  | 
CN1CCC2(C1)CN(C)C(=O)c1c(O)c(=O)c(C(=O)NCc3ccc(F)cc3F)cn12 (single isomer, unassigned) [Compound 50] | 1 nM | 74 nM |  | 
O=C(NCc1ccc(F)cc1F)c1cn2c(c(O)c1=O)C(=O)N(CCP(=O)(O)O)CC21CCOC1 (stereo not shown) [Compound 32] |  |  | 293 nM | 873 nM
CCOCCN1CC2(CCOC2)n2cc(C(=O)NCc3ccc(F)cc3F)c(=O)c(O)c2C1=O (stereo not shown) [Compound 22] |  |  | 2 nM | 40 nM
CN1CC2(CCOCC2)n2cc(C(=O)NCc3ccc(F)cc3F)c(=O)c(O)c2C1=O [Compound 7] |  |  | 6 nM | 113 nM
CCOP(=O)(CCN1CC2(CCOC2)n2cc(C(=O)NCc3ccc(F)cc3F)c(=O)c(O)c2C1=O)OCC (stereo not shown) [Compound 31] |  |  | 17 nM | 232 nM
CN1CC2(CCOC2)n2cc(C(=O)NCc3ccc(F)cc3F)c(=O)c(O)c2C1=O (stereo not shown) [Compound 15] | 4 nM | 108 nM |  | 
CN1CC2(CCNC2)n2cc(C(=O)NCc3ccc(F)cc3F)c(=O)c(O)c2C1=O (single isomer, unassigned) [Compound 51] | 3 nM | 68 nM |  | 
CN1CCC2(C1)CN(C)C(=O)c1c(O)c(=O)c(C(=O)NCc3ccc(F)cc3F)cn12 (single isomer, unassigned) [Compound 49] |  |  | 2 nM | 90 nM
CCN1C(=O)c2c(O)c(=O)c(C(=O)NCc3ccc(F)cc3F)cn2C2(COC2)C1OC (single isomer, unassigned) [Compound 34] | 5 nM | 4920 nM |  | 
CC(=O)N1CCC2(CN(C)C(=O)c3c(O)c(=O)c(C(=O)NCc4ccc(F)cc4F)cn32)C1 (single isomer, unassigned) [Compound 46] | 19 nM | 259 nM |  | 
CN1CC2(CCNC2)n2cc(C(=O)NCc3ccc(F)cc3F)c(=O)c(O)c2C1=O (single isomer, unassigned) [Compound 52] | 18 nM | 210 nM |  | 
CCN1C(=O)c2c(O)c(=O)c(C(=O)NCc3ccc(F)cc3F)cn2C2(CCOC2)C1OC (single isomer, unassigned) [Compound 35] | 1 nM | 88 nM |  | 
CCN1CC2(COC2)n2cc(C(=O)NCc3ccc(F)cc3F)c(=O)c(O)c2C1=O [Compound 5] |  |  | 4 nM | > 8400 nM
COCCN1CC2(CCOC2)n2cc(C(=O)NCc3ccc(F)cc3F)c(=O)c(O)c2C1=O (stereo not shown) [Compound 20] |  | 337 nM | 2 nM | 
COCCN1CC2(CCOC2)n2cc(C(=O)NCc3ccc(F)c(Cl)c3F)c(=O)c(O)c2C1=O (stereo not shown) [Compound 25] |  |  | 1 nM | 1730 nM
CC(=O)N1CCC2(CN(C)C(=O)c3c(O)c(=O)c(C(=O)NCc4ccc(F)cc4F)cn32)C1 (single isomer, unassigned) [Compound 45] | 69 nM |  |  | 297 nM
COCCN1CC2(CCOC2)n2cc(C(=O)NCc3ccc(F)c(Cl)c3)c(=O)c(O)c2C1=O (stereo not shown) [Compound 27] |  |  | 3 nM | 3660 nM
COC1N(N(C)C)C(=O)c2c(O)c(=O)c(C(=O)NCc3ccc(F)cc3F)cn2C12COC2 (stereo not shown) [Compound 38] |  |  | 7 nM | 235 nM
CN1CC2(CCN(S(C)(=O)=O)C2)n2cc(C(=O)NCc3ccc(F)cc3F)c(=O)c(O)c2C1=O (single isomer, unassigned) [Compound 47] |  |  | 6 nM | 78 nM

Structure (SMILES) | IC50 [1] | IC50 [2] | IC50 [3] | IC50 [4]
CC(C)OC(=O)OCOP(=O)(CCN1C[C@]2(CCOC2)n2cc(C(=O)NCc3ccc(F)cc3F)c(=O)c(O)c2C1=O)OCOC(=O)OC(C)C (single isomer, unassigned) [Compound 58] |  |  | 7 nM | 530 nM
CCN1CC2(CCOC2)n2cc(C(=O)NCc3ccc(F)cc3F)c(=O)c(O)c2C1=O (stereo not shown) [Compound 16] |  |  | 2 nM | 4530 nM
CN1CC2(COC2)n2cc(C(=O)NCc3ccc(F)cc3F)c(=O)c(O)c2C1=O [Compound 4] |  |  | 2 nM | 334 nM
CN(C)N1CC2(COC2)n2cc(C(=O)NCc3ccc(F)cc3F)c(=O)c(O)c2C1=O [Compound 1] |  |  | 4 nM | 1280 nM
COCCN1CC2(CCOC2)n2cc(C(=O)NCc3ccc(F)c(Cl)c3F)c(=O)c(O)c2C1=O (stereo not shown) [Compound 26] | 1 nM | 1140 nM |  | 
CN1CC2(CCN(S(C)(=O)=O)C2)n2cc(C(=O)NCc3ccc(F)cc3F)c(=O)c(O)c2C1=O (single isomer, unassigned) [Compound 48] | 10 nM | 112 nM |  | 
COCCN1CC2(CCCOC2)n2cc(C(=O)NCc3ccc(F)cc3F)c(=O)c(O)c2C1=O (single isomer, unassigned) [Compound 9] | 2 nM | 814 nM |  | 
CCN1C(=O)c2c(O)c(=O)c(C(=O)NCc3ccc(F)cc3F)cn2C2(COC2)C1OC (single isomer, unassigned) [Compound 33] |  | 210 nM | 3 nM | 
CN1CC2(CCCOC2)n2cc(C(=O)NCc3ccc(F)cc3F)c(=O)c(O)c2C1=O (stereo not shown) [Compound 10] |  | 75 nM | 3 nM | 
COCCN1CC2(CCOC2)n2cc(-c3nnc(Cc4ccc(F)cc4F)s3)c(=O)c(O)c2C1=O (stereo not shown) [Compound 39] |  | 291 nM | 2 nM | 
COCCN1CC2(CCOC2)n2cc(-c3nnc(Cc4ccc(F)cc4F)s3)c(=O)c(O)c2C1=O (stereo not shown) [Compound 40] | 4 nM | 691 nM |  | 
O=C(NCc1ccc(F)cc1F)c1cn2c(c(O)c1=O)C(=O)N(CCO)CC21CCOC1 (stereo not shown) [Compound 24] |  |  | 35 nM | > 8000 nM
COCCN1CC2(CCOCC2)n2cc(C(=O)NCc3ccc(F)cc3F)c(=O)c(O)c2C1=O [Compound 6] |  |  | 6 nM | 646 nM
COCCN1CC2(CCOC2)n2cc(C(=O)NCc3cccc(Cl)c3F)c(=O)c(O)c2C1=O (stereo not shown) [Compound 30] | 1 nM | 417 nM |  | 
COCCN1CC2(COC2)n2cc(C(=O)NCc3ccc(F)cc3F)c(=O)c(O)c2C1=O [Compound 3] |  |  | 3 nM | 292 nM
CCN1C(=O)c2c(O)c(=O)c(C(=O)NCc3ccc(F)cc3F)cn2C2(CCOC2)C1OC (single isomer, unassigned) [Compound 36] | 3 nM | 114 nM |  | 
COCN1CC2(CCOC2)n2cc(C(=O)NCc3ccc(F)cc3F)c(=O)c(O)c2C1=O (stereo not shown) [Compound 18] |  | > 8400 nM | 3 nM | 
CC(C)OC(=O)OCOP(=O)(CCN1C[C@@]2(CCOC2)n2cc(C(=O)NCc3ccc(F)cc3F)c(=O)c(O)c2C1=O)OCOC(=O)OC(C)C (single isomer, unassigned) [Compound 54] |  |  | 5 nM | 1600 nM
CN1CC2(CCOC2)n2cc(C(=O)NCc3ccc(F)cc3F)c(=O)c(O)c2C1=O (stereo not shown) [Compound 14] |  |  | 3 nM | 209 nM
COCN1CC2(CCOC2)n2cc(C(=O)NCc3ccc(F)cc3F)c(=O)c(O)c2C1=O (stereo not shown) [Compound 19] | 2 nM | 3420 nM |  | 
COCCN1CC2(CCOC2)n2cc(C(=O)NCc3ccc(F)cc3F)c(=O)c(O)c2C1=O (stereo not shown) [Compound 21] | 3 nM | 129 nM |  | 
COCCCN1CC2(CCOC2)n2cc(C(=O)NCc3ccc(F)cc3F)c(=O)c(O)c2C1=O (single isomer, unassigned) [Compound 12] | 5 nM |  |  | 47 nM
CCN1C(=O)c2c(O)c(=O)c(C(=O)NCc3ccc(F)cc3F)cn2C2(CCOC2)C1OC (single isomer, unassigned) [Compound 37] | 3 nM | 663 nM |  | 
COCCN1CC2(CCCOC2)n2cc(C(=O)NCc3ccc(F)cc3F)c(=O)c(O)c2C1=O (single isomer, unassigned) [Compound 8] |  | 260 nM | 2 nM | 
COCCN1CC2(CCOC2)n2cc(C(=O)NCc3ccc(F)c(Cl)c3)c(=O)c(O)c2C1=O (stereo not shown) [Compound 28] | 2 nM | 2770 nM |  | 
